In the SangsterLogP compilation one finds logP data, which are given here for 75 compounds.

The nature of this data set: method code SF-GLC, from DOI: 10.1016/0045-6535(89)90321-4.
`Clc1cc(Cl)c2c(c1)oc1cc(Cl)cc(Cl)c12` displayed a log partition coefficient (logP) of 6.34.
The figure for `Clc1cc2oc3c(Cl)c(Cl)ccc3c2cc1Cl` is 6.31; for `Clc1cc2oc3c(Cl)c(Cl)ccc3c2c(Cl)c1Cl` it is 6.26.
`Clc1cc2c(oc3ccc(Cl)c(Cl)c32)c(Cl)c1Cl` came in with a logP of 6.42.
The value for `Clc1cc(Cl)c2oc3cc(Cl)c(Cl)cc3c2c1` was 6.73; that for `Clc1cc(Cl)c2oc3c(Cl)cc(Cl)c(Cl)c3c2c1` was 6.34.
`Clc1cc(Cl)c2c(c1Cl)Oc1c(Cl)ccc(Cl)c1O2`: the logP came to 6.6.
The figure for `Clc1ccc2c(oc3c(Cl)ccc(Cl)c32)c1Cl` is 6.15; for `Clc1ccc2c(c1)Oc1cc(Cl)c(Cl)c(Cl)c1O2` it is 6.1; for `Clc1ccc2c(c1)oc1c(Cl)c(Cl)cc(Cl)c12` it is 6.23.
The value for `Clc1ccc2c(c1)Oc1c(Cl)cc(Cl)c(Cl)c1O2` was 6.25; that for `Clc1cc2c(cc1Cl)Oc1c(ccc(Cl)c1Cl)O2` was 6.38; that for `Clc1cc(Cl)c2c(c1)Oc1c(cc(Cl)c(Cl)c1Cl)O2` was 6.53.
The figure for `Clc1cc(Cl)c2c(c1)Oc1c(Cl)c(Cl)c(Cl)c(Cl)c1O2` is 6.85.
`Clc1cc2c(oc3c(Cl)c(Cl)ccc32)c(Cl)c1Cl` gave a log partition coefficient (logP) of 6.47.
The figure for `Clc1c(Cl)c(Cl)c2c(oc3ccccc32)c1Cl` is 6.17.
The figure for `Clc1ccc2oc3cc(Cl)c(Cl)c(Cl)c3c2c1` is 6.15; for `Clc1cc(Cl)c2c(c1Cl)Oc1c(Cl)c(Cl)cc(Cl)c1O2` it is 6.85.
The value for `Clc1cc(Cl)c2c(c1Cl)Oc1cccc(Cl)c1O2` was 6.1; that for `Clc1ccc2c(c1)oc1c(Cl)c(Cl)c(Cl)cc12` was 6.06; that for `Clc1cc(Cl)c2c(c1)oc1c(Cl)c(Cl)cc(Cl)c12` was 6.33.
As for `Clc1cc(Cl)c2oc3c(Cl)ccc(Cl)c3c2c1Cl`, the lipophilicity (logP) was 6.59.
In turn, `Clc1cc2oc3c(Cl)cc(Cl)c(Cl)c3c2cc1Cl` yielded a logP of 6.26.
The value for `Clc1cc2c(cc1Cl)Oc1cc(Cl)c(Cl)cc1O2` was 6.42.
The value for `Clc1cc2c(oc3c(Cl)c(Cl)c(Cl)c(Cl)c32)c(Cl)c1Cl` was 7.92.
The value for `Clc1cc(Cl)c2c(c1)Oc1ccc(Cl)c(Cl)c1O2` was 6.86; that for `Clc1cc(Cl)c2oc3c(Cl)c(Cl)c(Cl)cc3c2c1` was 6.59.
`Clc1cc2oc3cccc(Cl)c3c2c(Cl)c1Cl` came in with a logP of 6.06.
The figure for `Clc1cc2c(cc1Cl)Oc1c(Cl)ccc(Cl)c1O2` is 6.39.
`Clc1cc2c(cc1Cl)Oc1c(cc(Cl)c(Cl)c1Cl)O2` registered a logP of 6.64.
`Clc1cc2c(c(Cl)c1Cl)Oc1c(Cl)cccc1O2`: the logP was determined as 6.39.
The figure for `Clc1cc2c(c(Cl)c1Cl)Oc1ccc(Cl)c(Cl)c1O2` is 6.74.
In turn, `Clc1ccc2c(c1)oc1c(Cl)c(Cl)c(Cl)c(Cl)c12` gave a log partition coefficient (logP) of 6.53.
The value for `Clc1cc(Cl)c2c(oc3cccc(Cl)c32)c1Cl` was 5.89; that for `Clc1cc(Cl)c2oc3c(Cl)cc(Cl)cc3c2c1` was 6.17; that for `Clc1cc2c(c(Cl)c1Cl)Oc1c(Cl)cc(Cl)c(Cl)c1O2` was 7.59.
The figure for `Clc1cc(Cl)c2c(c1)oc1cc(Cl)c(Cl)cc12` is 6.34; for `Clc1cc(Cl)c2c(c1)Oc1c(ccc(Cl)c1Cl)O2` it is 6.43; for `Clc1cc(Cl)c2c(c1)Oc1c(Cl)ccc(Cl)c1O2` it is 6.25.
The value for `Clc1cc2c(c(Cl)c1Cl)Oc1c(Cl)ccc(Cl)c1O2` was 6.24.
Take `Clc1cc(Cl)c2c(c1Cl)Oc1c(Cl)cccc1O2`: the logP came out at 6.1.
The value for `Clc1cc(Cl)c2oc3cc(Cl)c(Cl)c(Cl)c3c2c1` was 6.33.
The figure for `Clc1cc2oc3c(Cl)cccc3c2c(Cl)c1Cl` is 6.15.
The value for `Clc1ccc2oc3c(Cl)cc(Cl)c(Cl)c3c2c1` was 6.31; that for `Clc1cc2c(oc3c(Cl)cccc32)c(Cl)c1Cl` was 6.11.
In turn, `Clc1cc2oc3ccc(Cl)c(Cl)c3c2cc1Cl` gave a log partition coefficient (logP) of 6.23.
The value for `Clc1cc(Cl)c2c(c1)Oc1cc(Cl)c(Cl)cc1O2` was 6.3.
The value for `Clc1cc(Cl)c2c(c1)oc1c(Cl)cc(Cl)cc12` was 6.37; that for `Clc1cc(Cl)c2c(c1)oc1ccc(Cl)c(Cl)c12` was 6.25.
The figure for `Clc1ccc2oc3c(Cl)c(Cl)c(Cl)c(Cl)c3c2c1` is 6.79; for `Clc1ccc2c(oc3c(Cl)c(Cl)cc(Cl)c32)c1Cl` it is 6.19.
In turn, `Clc1ccc2c(c1)Oc1c(cc(Cl)c(Cl)c1Cl)O2` had a logP of 6.1.
The figure for `Clc1ccc2c(oc3c(Cl)cc(Cl)c(Cl)c32)c1Cl` is 6.27; for `Clc1cc2c(c(Cl)c1Cl)Oc1cccc(Cl)c1O2` it is 6.86; for `Clc1ccc2oc3c(Cl)c(Cl)cc(Cl)c3c2c1` it is 6.13.
The value for `Clc1cc2c(oc3cccc(Cl)c32)c(Cl)c1Cl` was 6.17; that for `Clc1cc(Cl)c2oc3c(Cl)c(Cl)ccc3c2c1` was 6.25.
In the case of `Clc1cc2c(cc1Cl)Oc1c(Cl)c(Cl)cc(Cl)c1O2`, the logP worked out at 6.2.
The figure for `Clc1ccc2c(oc3ccc(Cl)c(Cl)c32)c1Cl` is 6.25.
The figure for `Clc1cc(Cl)c2oc3c(Cl)c(Cl)cc(Cl)c3c2c1` is 6.24; for `Clc1ccc2c(c1)Oc1c(Cl)c(Cl)cc(Cl)c1O2` it is 6.25; for `Clc1cc(Cl)c2c(c1)Oc1cc(Cl)c(Cl)c(Cl)c1O2` it is 6.4.
The value for `Clc1ccc(Cl)c2c1Oc1c(Cl)ccc(Cl)c1O2` was 6.38; that for `Clc1cc(Cl)c2c(oc3c(Cl)ccc(Cl)c32)c1Cl` was 6.34.
`Clc1cc(Cl)c2c(oc3c(Cl)cccc32)c1Cl`: the logP worked out at 6.31.
In turn, `Clc1cc(Cl)c2c(c1Cl)Oc1c(Cl)cc(Cl)c(Cl)c1O2` returned a lipophilicity (logP) of 6.85.
Compound `Clc1cccc2c1Oc1c(Cl)c(Cl)c(Cl)c(Cl)c1O2` yielded a logP of 6.3.
The figure for `Clc1cc(Cl)c2c(c1)oc1c(Cl)cc(Cl)c(Cl)c12` is 6.19; for `Clc1cc(Cl)c2c(c1)Oc1cc(Cl)cc(Cl)c1O2` it is 6.39.
The figure for `Clc1cc(Cl)c2c(oc3ccc(Cl)c(Cl)c32)c1Cl` is 6.51.
The value for `Clc1cc2c(oc3c(Cl)ccc(Cl)c32)c(Cl)c1Cl` was 6.53.
The compound `Clc1cc2c(c(Cl)c1Cl)Oc1c(Cl)c(Cl)cc(Cl)c1O2` came in with a lipophilicity (logP) of 7.59.
`Clc1ccc(Cl)c2c1oc1c(Cl)ccc(Cl)c12` registered a logP of 5.6.
The value for `Clc1ccc2c(c1)Oc1c(Cl)c(Cl)c(Cl)c(Cl)c1O2` was 6.6; that for `Clc1cc(Cl)c2c(c1)Oc1c(Cl)cc(Cl)cc1O2` was 6.29.

By logP is commonly meant the decadic logarithm of the partition coefficient of the neutral form, usually between octanol and water. Higher therefore signals a more lipophilic compound.
